Experimental data taken from patent publication US20220168201A1, “USE OF DIANHYDROHEXITOL FOR PRESERVING COSMETIC PREPARATIONS” (ROQUETTE FRERES, priority 2019, published 2022).

How the values were obtained:
Malassezia furfur = test: In-vitro effect on microbial strains: population count over 28 days, Malassezia furfur; assay type: cell-based; details: for Number of colony-forming strains after: 24 h / Number of colony-forming strains after: 7 days / Number of colony-forming strains after: 14 days / Number of colony-forming strains after: 21 days / Number of colony-forming strains after: 28 days: inoculum 1.5 × 10^4, 22° C.
Method: (§1) The samples are prepared under sterile conditions and deposited in microplates (2-ml wells) with the concentrations hereunder. Two analysis controls were carried out: • a positive control corresponding to 0.5% Phenonip®; • a negative control consisting of 0.85% physiological saline solution. Samples and controls are contaminated with three bacterial strains, namely Staphylococcus epidermidis, Corynebacterium xerosis, and Propionobacterium acnes, at a rate of approximately […] to 4.15×10^5 colony-forming units per milliliter, denoted cfu/ml; and a fungal strain, namely Malassezia furfur, at a rate of approximately 1.50×104 to 3.80×10^4 cfu/ml. After contamination, the samples are carefully mixed by suction and discharge cycles in order to ensure a uniform distribution of the microorganism. The whole is incubated at 22° C. during 28 days. The microbial population is sampled and counted at 24 hours and 7, 14, 21 and 28 days for each microbial strain. The contaminated samples are collected and then deposited in serial dilutions in microtiter plates, in the presence of culture medium, which is a saline solution with 0.85% sodium chloride, and a dehydrogenase activity indicator reagent, which is 2,3,5-triphenyltetrazolium chloride (denoted TTC). The results are presented in the following pages with the variation of the microbial population over the 28 days of study, for the tested microbial strain. The measurements of microbial populations in the samples collected at each time, are carried out according to the following microtiter method, for one sample collection. In the 96 wells with a volume of 250 μL of a microtiter plate, 20 μL of the collected sample are diluted by a factor of 10 by dispersion in 180 μL of Letheen broth (Difco, ref. 268110) containing 1.5% of Tween 80 (Sigma, ref. […]) and TTC (Sigma, ref. […]). The microplate is incubated for 48 hours at 32.5° C., and the growth of the microorganisms is monitored by the color change, from colorless to red/pink. The highest reciprocal dilution indicating a growth makes it possible to determine the log number of each microorganism at each time. The measurements of microbial populations taken at each collection time are expressed as colony forming units/ml.

Propionobacterium acnes = test: In-vitro effect on microbial strains: population count over 28 days, Propionobacterium acnes; assay type: cell-based; details: for Number of colony-forming strains after: 24 h / Number of colony-forming strains after: 7 days / Number of colony-forming strains after: 14 days / Number of colony-forming strains after: 21 days / Number of colony-forming strains after: 28 days: inoculum 3.98 × 10^5, 22° C.
Method: as §1

Aspergillus brasiliensis = details: U.S. Pat. No. 9,295,626, col. 27, Table 2; cited from earlier work
Staphylococcus aureus = details: U.S. Pat. No. 9,295,626, col. 27, Table 2; cited from earlier work
Corynebacterium xerosis = test: In-vitro effect on microbial strains: population count over 28 days, Corynebacterium xerosis; assay type: cell-based; details: for Number of colony-forming strains after: 24 h / Number of colony-forming strains after: 7 days / Number of colony-forming strains after: 14 days / Number of colony-forming strains after: 21 days / Number of colony-forming strains after: 28 days: inoculum 3.2 × 10^5, 22° C.
Method: as §1

[1] = test system: Staphylococcus epidermidis; test: In-vitro effect on microbial strains: population count over 28 days, Staphylococcus epidermidis; assay type: cell-based; details: for Number of colony-forming strains after: 24 h / Number of colony-forming strains after: 7 days / Number of colony-forming strains after: 14 days / Number of colony-forming strains after: 21 days / Number of colony-forming strains after: 28 days: inoculum 1.43 × 10^5, 22° C.
Method: as §1

Candida albicans = details: U.S. Pat. No. 9,295,626, col. 27, Table 2; cited from earlier work
[2] = after 24 hours, doses 1%, 5%, 9%
[3] = after 24 hours, the three doses tested (1%, 5%, 9%)

## O[C@@H]1CO[C@H]2[C@@H]1OC[C@@H]2O [isosorbide, 1,4-3,6-dianhydrosorbitol]
Malassezia furfur; [2]
  colony-forming strains observed: no colony-forming strain is observed
Malassezia furfur; isosorbide dose 1%
  Number of colony-forming strains after: 24 h: 0 colony forming units/ml
  Number of colony-forming strains after: 7 days: 0 colony forming units/ml
  Number of colony-forming strains after: 14 days: 0 colony forming units/ml
  Number of colony-forming strains after: 21 days: 0 colony forming units/ml
  Number of colony-forming strains after: 28 days: 0 colony forming units/ml
Malassezia furfur; isosorbide dose 5%
  Number of colony-forming strains after: 24 h: 0 colony forming units/ml
  Number of colony-forming strains after: 7 days: 0 colony forming units/ml
  Number of colony-forming strains after: 14 days: 0 colony forming units/ml
  Number of colony-forming strains after: 21 days: 0 colony forming units/ml
  Number of colony-forming strains after: 28 days: 0 colony forming units/ml
Malassezia furfur; isosorbide dose 9%
  Number of colony-forming strains after: 24 h: 0 colony forming units/ml
  Number of colony-forming strains after: 7 days: 0 colony forming units/ml
  Number of colony-forming strains after: 14 days: 0 colony forming units/ml
  Number of colony-forming strains after: 21 days: 0 colony forming units/ml
  Number of colony-forming strains after: 28 days: 0 colony forming units/ml
Malassezia furfur; summary of Table 2
  effect on the strain in words: bactericide
Propionobacterium acnes; [2]
  colony-forming strains observed: no colony-forming strain is observed
Propionobacterium acnes; isosorbide dose 1%
  Number of colony-forming strains after: 24 h: 0 colony forming units/ml
  Number of colony-forming strains after: 7 days: 0 colony forming units/ml
  Number of colony-forming strains after: 14 days: 0 colony forming units/ml
  Number of colony-forming strains after: 21 days: 0 colony forming units/ml
  Number of colony-forming strains after: 28 days: 0 colony forming units/ml
Propionobacterium acnes; isosorbide dose 5%
  Number of colony-forming strains after: 24 h: 0 colony forming units/ml
  Number of colony-forming strains after: 7 days: 0 colony forming units/ml
  Number of colony-forming strains after: 14 days: 0 colony forming units/ml
  Number of colony-forming strains after: 21 days: 0 colony forming units/ml
  Number of colony-forming strains after: 28 days: 0 colony forming units/ml
Propionobacterium acnes; isosorbide dose 9%
  Number of colony-forming strains after: 24 h: 0 colony forming units/ml
  Number of colony-forming strains after: 7 days: 0 colony forming units/ml
  Number of colony-forming strains after: 14 days: 0 colony forming units/ml
  Number of colony-forming strains after: 21 days: 0 colony forming units/ml
  Number of colony-forming strains after: 28 days: 0 colony forming units/ml
Propionobacterium acnes; summary of Table 1
  effect on the strain in words: bactericide
Aspergillus brasiliensis
  minimum inhibitory concentration: 10%
Staphylococcus aureus
  minimum inhibitory concentration: 10%
Corynebacterium xerosis; [3]
  reduction of the number of colony-forming strains: at least 3 log 10
Corynebacterium xerosis; after 7 days
  colony-forming strains observed: no more colony-forming strains
Corynebacterium xerosis; isosorbide dose 1%
  Number of colony-forming strains after: 24 h: 4 × 10^2 colony forming units/ml
  Number of colony-forming strains after: 7 days: 0 colony forming units/ml
  Number of colony-forming strains after: 14 days: 0 colony forming units/ml
  Number of colony-forming strains after: 21 days: 0 colony forming units/ml
  Number of colony-forming strains after: 28 days: 0 colony forming units/ml
Corynebacterium xerosis; isosorbide dose 5%
  Number of colony-forming strains after: 24 h: 1 × 10^2 colony forming units/ml
  Number of colony-forming strains after: 7 days: 0 colony forming units/ml
  Number of colony-forming strains after: 14 days: 0 colony forming units/ml
  Number of colony-forming strains after: 21 days: 0 colony forming units/ml
  Number of colony-forming strains after: 28 days: 0 colony forming units/ml
Corynebacterium xerosis; isosorbide dose 9%
  Number of colony-forming strains after: 7 days: 0 colony forming units/ml
  Number of colony-forming strains after: 14 days: 0 colony forming units/ml
  Number of colony-forming strains after: 21 days: 0 colony forming units/ml
  Number of colony-forming strains after: 28 days: 0 colony forming units/ml
Corynebacterium xerosis; summary of Table 3
  effect on the strain in words: moderate bactericide
[1]; [3]
  reduction of the number of colony-forming strains: at least 2 log 10
[1]; after 7 days
  colony-forming strains observed: no more colony-forming strains
[1]; isosorbide dose 1%
  Number of colony-forming strains after: 24 h: 4 × 10^3 colony forming units/ml
  Number of colony-forming strains after: 7 days: 0 colony forming units/ml
  Number of colony-forming strains after: 14 days: 0 colony forming units/ml
  Number of colony-forming strains after: 21 days: 0 colony forming units/ml
  Number of colony-forming strains after: 28 days: 0 colony forming units/ml
[1]; isosorbide dose 5%
  Number of colony-forming strains after: 24 h: 1 × 10^3 colony forming units/ml
  Number of colony-forming strains after: 7 days: 0 colony forming units/ml
  Number of colony-forming strains after: 14 days: 0 colony forming units/ml
  Number of colony-forming strains after: 21 days: 0 colony forming units/ml
  Number of colony-forming strains after: 28 days: 0 colony forming units/ml
[1]; isosorbide dose 9%
  Number of colony-forming strains after: 24 h: 7 × 10^2 colony forming units/ml
  Number of colony-forming strains after: 7 days: 0 colony forming units/ml
  Number of colony-forming strains after: 14 days: 0 colony forming units/ml
  Number of colony-forming strains after: 21 days: 0 colony forming units/ml
  Number of colony-forming strains after: 28 days: 0 colony forming units/ml
[1]; summary of Table 4
  effect on the strain in words: weak bactericide
Candida albicans
  minimum inhibitory concentration: 10%
